US20250042983A1, “ANTI-LCN-2 ANTIBODIES AS A TREATMENT FOR EYE DISORDERS” (UNIVERSITY OF PITTSBURGH - OF THE COMMONWEALTH SYSTEM OF …, priority 2021, published 2025)
Entries after “also recorded” stand apart in the source; their conditions may differ.

What was measured:
ARPE19 cells [1] = assay: Estimation of autophagosome number in RPE cells (GFP-RFP-LC3 puncta); type: cell-based, human; conditions: chloroquine as positive control
Method: The cells were then treated with 10^7 vg/ml of an Ad-LCN-2 construct (as described above) for 48 h. […] Confocal images were acquired at 60× using Nikon NIS Elements v5.3(Nikon, Melville NY). 3D spot detection was used to segment positive structures for size, shape and intensity for RFP/GFP, and RFP only puncta were identified.

Cryba1 KO RPE explants = assay: Rescue experiments in RPE explants exposed to FAC and Ad-LCN-2 (Western blot, ROS); type: cell-based, mouse; conditions: pre-treatment, then FAC and Ad-LCN-2
Source text: RPE explant culture was done as previously described (Shang et al., Commun. Biol., 4(1): 850 (2021)). Briefly, eyeballs were enucleated from WT, Cryba1 KO, Sting KO or Sting^GT mice respectively, immediately after euthanasia by putting in CO2 chamber. The posterior eyecups were cut into four petals after the removal of anterior segments and the neural retina was carefully removed. The resulting RPE-Choroid-Sclera (RCS) complexes were flattened onto PVDF membranes with the RPE cells facing up and cultured as previously described. For experiments involving iron regulation, RPE explants from different genotypes were cultured in presence of ferric ammonium citrate (FAC, Sigma Aldrich, RES20400-A702X) at a dose of 250 μM for 72 h (Hadziahmetovic et al., Am. J Pathol., 179(1): 335-48 (2011)); Chothe et al., Biochem. Biophys. Res. Commun., 405(2): 244-9 (2011)), Adenovirus-LCN-2 (10^7 vg/ml, Ad-LCN-2, Vector Biolabs, ADV-263329) construct for 48 h and with or without chloroquine (ChQ; Sigma Aldrich, C6628-25G), a lysosomal blocker at a dose of 50 μM for the last 6 h of the experimental duration. For rescue experiments, Cryba1 KO explants were cultured and pre-treated with either Def (100 μM for 24 h; Sigma Aldrich, D9533-1G) or Sting inhibitor (H-151; 1 μM for 6 hours; Invitrogen, inh-h151) which was followed by FAC and Ad-LCN-2 treatment as explained above.
Whole cells lysates were made from RPE cells harvested from Cryba1^fl/fl or Cryba1 cKO mice or from in vitro RPE flat mount cultures from different experimental conditions as explained previously. The lysates were either made in 1×RIPA buffer (EMD Milipore, Cat #20-188) or NATIVE lysis buffer (Abcam, ab156035) containing 0.1% of a protease inhibitor cocktail (Sigma Aldrich, 13786) and 0.1% phosphatase inhibitor cocktail (Sigma Aldrich, P0044-5ML). The protein extracts were subjected to quantification by using the Pierce BCA Protein Assay Kit (Thermo Fisher, 23225). The RIPA protein samples were mixed with 4× protein sample buffer (Life Technologies, NP0007) containing 5% 2-mercaptoethanol (Sigma Aldrich, M6256) and heated at 95° C. for 10 min to denature. The native protein samples were mixed with NATIVE sample buffer (Bio-Rad, 1610738) at a 1:1 ratio. The native samples were loaded on NATIVE-PAGE gels (Thermo Fisher, BN1002BOX) and run using NATIVE-PAGE running buffer (Thermo Fisher, BN2001). Samples were loaded onto a 4-12% Bis-Tris Nu-PAGE gel (Invitrogen, NP0323BOX) and run with MES buffer (Invitrogen, NP0002). Proteins were transferred to nitrocellulose membranes (Invitrogen, 1B23001), which were then blocked in 5% blocking grade skim milk (Bio-Rad, 170-6404) or 5% BSA (Sigma Aldrich, A3912-50G) for phosphorylated proteins. The membranes were incubated with the appropriate primary antibody overnight followed by horseradish peroxidase-conjugated anti-rabbit (KPL, 074-1506) or anti-mouse (KPL, 074-1806) secondary antibodies for 1 h at RT. A chemiluminescence development technique was utilized to develop the blots (GE Healthcare, RPN2209) and the blots were imaged using the Azure imaging system (Azure Biosystems, USA). […]
The ROS generation in 10-month-old RPE cells from Cryba1^fl/fl and Cryba1 cKO mice was evaluated as described previously (Ghosh et al., Cell Signal., 68: 109521 (2020)). […]

ARPE19 cells [2] = assay: Live cell imaging of lipid peroxidation with liperfluo dye; type: cell-based, human
Method: To assess the levels of lipid peroxidation in RPE cells, ARPE19 cells were cultured on four chambered dishes (VWR, 627871) and then either left untreated (control) or treated with 250 μM of ferric ammonium citrate (FAC) for 72 h to mimic the increased iron levels in vivo, followed by Ad-LCN-2 (10^7 vg/ml) for the last 48 h and chloroquine (50 μM) for the last 6 h of the experimental duration respectively. RSL3 (3 μM, overnight; Cayman Chemicals, 19288) was used as a positive control for ferroptosis activation. The clone #6 monoclonal antibody targeting LCN-2 (mAb; 1 μg/ml, 24 h) antibody and 25 μM (overnight) of ferrostatin-1 (Cayman Chemicals, 17729) were added to the culture to rescue ferroptosis induction in the RPE cells. Prior to imaging, the cells were incubated with Liperfluo (10 μM, Fisher Scientific, L24810) for 30 min, and washed twice with PBS before replacing the original media in each chamber. […] Liperfluo was excited using a diode-pumped light engine (SPECTRA X, Lumencor) and detected using an Prime95b sCMOS camera (Photometrics) and excitation and emission filters from Chroma. […] Data was collected and liperfluo emissions were analyzed using NIS Elements (Nikon, Inc. Melville, NY).

Human ATG4B [3] = target: T1, Human ATG4B (Homo sapiens, UniProt Q9Y4P1); assay: Thermal shift assay with sypro orange; type: binding; conditions: ATG4B incubated with human LCN-2, vs ATG4B only
T1 construct: purchased Abcam ab188707
T1 sequence (Q9Y4P1 1-393): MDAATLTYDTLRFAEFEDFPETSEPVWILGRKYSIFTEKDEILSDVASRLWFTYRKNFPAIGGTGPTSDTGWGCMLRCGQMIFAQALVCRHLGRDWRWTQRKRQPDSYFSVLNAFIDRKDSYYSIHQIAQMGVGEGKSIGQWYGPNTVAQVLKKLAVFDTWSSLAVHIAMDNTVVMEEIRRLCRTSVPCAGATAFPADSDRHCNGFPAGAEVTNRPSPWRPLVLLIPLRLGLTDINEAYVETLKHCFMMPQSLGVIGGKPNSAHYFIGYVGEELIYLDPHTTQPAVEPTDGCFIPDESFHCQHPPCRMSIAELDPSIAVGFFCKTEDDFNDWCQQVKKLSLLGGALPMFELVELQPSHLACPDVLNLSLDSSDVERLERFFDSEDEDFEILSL
Method: (§1) Changes in melting temperature (Tm) was assessed to evaluate the binding propensity of LCN-2 and ATG4B. Human ATG4B (Abcam, ab188707) at a dose of 0.5 μg/ml with or without 1 μg/ml of human LCN-2 (R&D Systems, 1757-LC-050) and 5 μM sypro orange (Thermo Fisher, S-6650) were incubated for 30 min at 4° C. The change in Tm was evaluated in a quantitative PCR machine (ABI Systems, USA) using a previously published method (Huynh et al., Curr. Protoc. Protein Sci., 79: 28.9.1-28.9.14 (2015); Layton et al., Protein Sci., 20(8): 1439-50 (2011)).

Human ATG4B [4] = target: T1, Human ATG4B; assay: Cell free ATG4B activity assay (LC3-GST cleavage); type: biochemical; conditions: ATG4B 0.5 μg/ml, LCN-2 1.0 μg/ml, 15 minutes; listed as human recombinant LCN-2
Method: ATG4B activity assay was measured by incubating recombinant human LC3-GST (Enzo, BML-UW1155-0500) at a dose of 20 μg/ml with 0.5 μg/ml of human ATG4B (Abcam, ab188707) with or without human LCN-2 (R&D Systems, 1757-LC-050) at a dose of 1 μg/ml for 15 min at room temperature (Pengo et al., Nat. Commun., 8(1): 294 (2017)). The protein samples were then mixed with 4× protein sample buffer (Life Technologies, NP0007) containing 5% 2-mercaptoethanol (Sigma Aldrich, M6256) and heated at 95° C. for 10 min to denature. The samples were then subjected to Western blot using the anti-GST primary antibody (Cell Signaling USA, 2622S) as previously explained (Ghosh et al., J. Pathol., 241(5): 583-588 (2017); Shang et al., Aging Cell, 16(2): 349-359 (2017)).

[5] = target: T2, recombinant human ATG4B (Abcam, ab188707) (human, UniProt Q9Y4P1 1-393, limits assumed); assay: thermal shift assay with sypro orange
T2 construct: Bought recombinant protein; also called human recombinant ATG4B; Autophagy Related 4B Cysteine Peptidase
T2 sequence (looked up): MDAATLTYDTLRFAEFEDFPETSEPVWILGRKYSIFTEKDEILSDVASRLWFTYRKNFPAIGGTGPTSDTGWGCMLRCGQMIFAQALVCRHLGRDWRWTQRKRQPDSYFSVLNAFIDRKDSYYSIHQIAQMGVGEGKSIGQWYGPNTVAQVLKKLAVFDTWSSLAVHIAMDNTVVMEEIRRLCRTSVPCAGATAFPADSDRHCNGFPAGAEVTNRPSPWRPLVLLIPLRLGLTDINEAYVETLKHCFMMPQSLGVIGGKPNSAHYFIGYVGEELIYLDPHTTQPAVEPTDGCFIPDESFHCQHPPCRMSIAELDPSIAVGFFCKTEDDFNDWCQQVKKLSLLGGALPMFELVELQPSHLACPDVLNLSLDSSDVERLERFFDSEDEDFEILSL
Method: FIGS. 2C-2D are line (2C) and dot plot (2D) graphs showing the results of a thermal shift assay. […] The melting temperature is reflective of the change in sypro orange fluorescence (arbitrary units) which was added (5 μM) to each reaction mixture. n=4. All values are Mean±SD. Significant change is indicated by *P<0.05.
as §1

ATG4B activity = assay: GFP-LC3-RFP-ΔLC3 construct and flow cytometry (ATG4B-mediated LC3 processing); type: cell-based, human; conditions: recombinant LCN-2 1.0 μg/ml for 24 h; relative to control
Method: ARPE19 cells were cultured up to 60% confluency and then transfected with the GFP-LC3-RFP-ΔLC3 construct (Addgene, 84572), to assess ATG4B activity, using the manufacturer's protocol of the Lipofectamine 3000 Transfection Reagent (Thermo Fisher, L3000008) for 72 h (Ghosh et al., Commun. Biol., 4(1): 248 (2021)). The transfection efficiency was confirmed by visualizing the GFP and RFP signals in the transfected cells using a fluorescence microscope. This was followed by infection with an Ad-LCN-2 construct (as described above) for 48 h and treatment with recombinant human LCN-2 protein (R&D Systems, 1757-LC-050) at a dose of 1 μg/ml for 24 h in separate experiments. The cells were then scraped off the plates and were analyzed by flow cytometry using the LSR-II platform ([…]). The results were analyzed using the FlowJo software (v10.8) and the data from each group was represented as the ratio of median GFP fluorescence to RFP fluorescence (Kaizuka et al., Mol. Cell, 64(4): 835-849 (2016); Ghosh et al., Commun. Biol., 4(1): 248 (2021)).

CCN(CC)CCCC(C)Nc1ccnc2cc(Cl)ccc12 (stereo not shown) [Chloroquine, chloroquine]
number of puncta (autophagosomes) (ARPE19 cells [1]): highly increased puncta

CCc1ccc(NC(=O)Nc2c[nH]c3ccccc23)cc1 [Clone H-151]
STING levels (Western blot) (Cryba1 KO RPE explants): such changes were not observed
cGAS levels (Western blot) (Cryba1 KO RPE explants): such changes were not observed
NLRP3 levels (Western blot) (Cryba1 KO RPE explants; vs vehicle (DMSO)): significantly reduced; also recorded: rescued the levels of NLRP3 inflammasome expression
SOD1 levels (Western blot) (Cryba1 KO RPE explants; vs vehicle (DMSO)): decreased
ROS levels (Cryba1 KO RPE explants; vs vehicle, listed as STING inhibitor): decreased; also recorded: rescued

COC(=O)c1ccc([C@@H]2c3[nH]c4ccccc4c3C[C@@H](C(=O)OC)N2C(=O)CCl)cc1 [RSL3, reference compound]
lipid peroxidation (liperfluo emission intensity) (ARPE19 cells [2]; RSL3 alone as positive control, compared to control): induced lipid peroxidation; also recorded: higher iperfluo emission intensity

CCOC(=O)c1ccc(NC2CCCCC2)c(N)c1 [ferrostatin-1, reference compound]
lipid peroxidation (liperfluo emission intensity) (ARPE19 cells [2]; ferrostatin-1 pre-treatment of FAC+Ad-LCN-2+Chloroquine (FLC) treated cells): could rescue the lipid peroxidation; also recorded: abrogated the changes

B1: human recombinant LCN-2 (R&D Systems, 1757-LC-050) (other)
chain: QDSTSDLIPAPPLSKVPLQQNFQDNQFQGKWYVVGLAGNAILREDKDPQKMYATIYELKEDKSYNVTSVLFRKKKCDYWIRTFVPGCQPGEFTLGNIKSYPGLTSYLVRVVSTNYNQHAMVFFKKVSQNREYFKITLYGRTKELTSELKENFIRFSKSLGLPENHIVFPVPIDQCIDG
notes: Bought protein; also called human LCN-2 protein; recombinant human LCN-2
melting temperature (Tm) shift of ATG4B (Human ATG4B [3]; listed as human LCN-2 protein): increase in melting temperature
melting temperature (Tm) shift of ATG4B (Human ATG4B [3]; listed as human recombinant LCN-2): consistent with binding between the two proteins
ATG4B activity (GST cleavage from LC3-GST, Western blot) (Human ATG4B [4]): Decreased GST cleavage; also recorded: could inhibit LC3 processing through the inhibition of Atg4b activity
binding result [5]: binds
GFP/RFP ratio (LC3 processing/lipidation) (ATG4B activity): GFP fluorescence was increased; also recorded: increase in the GFP/RFP ratio
